Results taken from patent US10981905B2, “Heteroaryl-substituted sulfonamide compounds and their use as therapeutic agents” (Xenon Pharmaceuticals Inc., priority 2018, dated 2021).
Structures can show the parent of a compound that is named as a salt. Where two headings read alike, the source gives them in different places.

Tests used:
[1] = molecular target: T1, Nav1.6 (Homo sapiens (Human), UniProt Q9UQD0); assay: Electrophysiological Assay (EP, patch voltage clamp), Nav1.6; type: cell-based; details: HEK-293 cells stably expressing the channel
T1 sequence (Q9UQD0 whole entry): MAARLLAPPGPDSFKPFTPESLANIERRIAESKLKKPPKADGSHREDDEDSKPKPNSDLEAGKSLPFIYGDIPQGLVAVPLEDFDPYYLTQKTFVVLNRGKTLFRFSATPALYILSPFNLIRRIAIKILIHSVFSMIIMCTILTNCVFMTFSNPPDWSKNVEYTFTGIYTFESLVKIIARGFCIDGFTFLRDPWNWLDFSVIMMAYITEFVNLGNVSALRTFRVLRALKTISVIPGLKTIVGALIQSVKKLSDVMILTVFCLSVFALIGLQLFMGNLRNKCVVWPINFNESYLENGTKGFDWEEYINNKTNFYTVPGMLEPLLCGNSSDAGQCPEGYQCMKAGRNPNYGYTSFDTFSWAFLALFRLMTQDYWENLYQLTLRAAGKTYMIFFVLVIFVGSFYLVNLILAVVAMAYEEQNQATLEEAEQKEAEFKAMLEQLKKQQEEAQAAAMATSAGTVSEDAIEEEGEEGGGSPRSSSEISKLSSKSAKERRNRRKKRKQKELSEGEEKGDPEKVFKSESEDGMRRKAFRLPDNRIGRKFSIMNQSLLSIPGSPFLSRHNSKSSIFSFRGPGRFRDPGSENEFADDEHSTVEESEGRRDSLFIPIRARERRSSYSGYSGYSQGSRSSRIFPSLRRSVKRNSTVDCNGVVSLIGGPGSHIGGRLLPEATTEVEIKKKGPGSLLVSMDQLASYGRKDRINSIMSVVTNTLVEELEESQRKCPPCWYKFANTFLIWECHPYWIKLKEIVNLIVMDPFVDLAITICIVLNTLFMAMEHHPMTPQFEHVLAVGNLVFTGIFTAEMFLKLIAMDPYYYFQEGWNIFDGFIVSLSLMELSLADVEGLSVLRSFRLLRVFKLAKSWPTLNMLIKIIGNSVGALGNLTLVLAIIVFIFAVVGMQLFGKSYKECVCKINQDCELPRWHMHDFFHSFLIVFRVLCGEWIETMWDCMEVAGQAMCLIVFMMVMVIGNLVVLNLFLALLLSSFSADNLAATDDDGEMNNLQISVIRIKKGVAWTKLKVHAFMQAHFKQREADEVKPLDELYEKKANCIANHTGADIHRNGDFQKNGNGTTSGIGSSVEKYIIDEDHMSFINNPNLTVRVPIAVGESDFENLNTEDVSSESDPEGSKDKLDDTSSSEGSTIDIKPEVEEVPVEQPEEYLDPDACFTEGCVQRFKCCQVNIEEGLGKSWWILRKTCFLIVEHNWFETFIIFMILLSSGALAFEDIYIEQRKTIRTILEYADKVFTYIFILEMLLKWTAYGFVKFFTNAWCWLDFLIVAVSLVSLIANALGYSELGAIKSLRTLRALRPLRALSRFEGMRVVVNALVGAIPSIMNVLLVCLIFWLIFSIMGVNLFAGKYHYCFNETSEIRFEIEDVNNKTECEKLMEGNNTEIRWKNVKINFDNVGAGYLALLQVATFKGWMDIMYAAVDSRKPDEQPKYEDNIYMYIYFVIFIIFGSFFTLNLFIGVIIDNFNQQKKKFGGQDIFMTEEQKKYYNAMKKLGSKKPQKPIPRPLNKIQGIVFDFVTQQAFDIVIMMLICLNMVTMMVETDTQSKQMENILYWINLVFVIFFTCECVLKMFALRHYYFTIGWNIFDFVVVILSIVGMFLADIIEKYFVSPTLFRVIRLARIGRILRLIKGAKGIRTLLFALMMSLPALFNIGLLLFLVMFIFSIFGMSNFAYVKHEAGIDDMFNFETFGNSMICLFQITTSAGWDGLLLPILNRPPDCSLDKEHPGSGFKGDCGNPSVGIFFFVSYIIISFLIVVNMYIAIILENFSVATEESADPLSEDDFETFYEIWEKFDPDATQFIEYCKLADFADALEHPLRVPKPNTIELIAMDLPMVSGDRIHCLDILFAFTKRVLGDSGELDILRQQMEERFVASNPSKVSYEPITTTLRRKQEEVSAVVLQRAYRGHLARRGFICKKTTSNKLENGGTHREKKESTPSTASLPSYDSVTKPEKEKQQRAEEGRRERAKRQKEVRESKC
Excerpt: Patch voltage clamp electrophysiology allows for the direct measurement and quantification of block of voltage-gated sodium channels (Nav's), and allows the determination of the time- and voltage-dependence of block which has been interpreted as differential binding to the resting, open, and inactivated states of the sodium channel (Hille, B., Journal of General Physiology (1977), 69: 497-515).
Nav1.1, Nav1.5 and Nav1.6 cDNAs (NM_001165964 (SCN1A), NM_000335 (SCN5A) and NM_014191 (SCN8A), respectively) were stably expressed in HEK-293 cells.
Sodium currents were measured using the patch clamp technique in the whole-cell configuration using either a PatchXpress automated voltage clamp or manually using an Axopatch 200B (Axon Instruments) or Model 2400 (A-M systems) amplifier. The manual voltage clamp protocol was as follows: Borosilicate glass micropipettes were fire-polished to a tip diameter yielding a resistance of 2-4 Mohms in the working solutions. […] In some studies, the external sodium was reduced by equimolar replacement with choline. Osmolarity in the CsF internal and NaCl external solutions was adjusted to 300 mOsm/kg and 310 mOsm/kg with glucose, respectively. All recordings were performed at ambient temperature in a bath chamber with a volume of 150 μL. Control sodium currents were measured in 0.5% DMSO. Controls and representative compounds of the invention were applied to the recording chamber through a 4-pinch or 8-pinch valve bath perfusion system manufactured by ALA Scientific Instruments.
Currents were recorded at 40 kHz sampling frequency, filtered at […], and stored using a Digidata-1322A analogue/digital interface with the pClamp software (Axon Instruments). Series resistance compensation was applied (60-80%). […] All statistics in this study are given as mean±SD.
The membrane potential was maintained at a voltage where inactivation of the channel is complete. The voltage is then stepped back to a very negative (Vhold=−150 mV) voltage for 20 ms and then a test pulse is applied to quantify the compound block. The 20 ms brief repolarization was long enough for compound-free channels to completely recover from fast inactivation, but the compound-bound channels recovered more slowly such that negligible recovery could occur during this interval. The percent decrease in sodium current following wash-on of compound was taken as the percent block of sodium channels.

[2] = molecular target: T1, Nav1.6; assay: Sodium Influx Assay (Flux), Nav1.6; type: cell-based; details: Trex HEK293 cells, ANG2 dye, inactivated state
[3] = molecular target: T2, Nav1.5 (Homo sapiens (Human), UniProt Q14524); assay: Sodium Influx Assay (Flux), Nav1.5
T2 sequence (Q14524 other isoform, or with tags, fused parts or gaps): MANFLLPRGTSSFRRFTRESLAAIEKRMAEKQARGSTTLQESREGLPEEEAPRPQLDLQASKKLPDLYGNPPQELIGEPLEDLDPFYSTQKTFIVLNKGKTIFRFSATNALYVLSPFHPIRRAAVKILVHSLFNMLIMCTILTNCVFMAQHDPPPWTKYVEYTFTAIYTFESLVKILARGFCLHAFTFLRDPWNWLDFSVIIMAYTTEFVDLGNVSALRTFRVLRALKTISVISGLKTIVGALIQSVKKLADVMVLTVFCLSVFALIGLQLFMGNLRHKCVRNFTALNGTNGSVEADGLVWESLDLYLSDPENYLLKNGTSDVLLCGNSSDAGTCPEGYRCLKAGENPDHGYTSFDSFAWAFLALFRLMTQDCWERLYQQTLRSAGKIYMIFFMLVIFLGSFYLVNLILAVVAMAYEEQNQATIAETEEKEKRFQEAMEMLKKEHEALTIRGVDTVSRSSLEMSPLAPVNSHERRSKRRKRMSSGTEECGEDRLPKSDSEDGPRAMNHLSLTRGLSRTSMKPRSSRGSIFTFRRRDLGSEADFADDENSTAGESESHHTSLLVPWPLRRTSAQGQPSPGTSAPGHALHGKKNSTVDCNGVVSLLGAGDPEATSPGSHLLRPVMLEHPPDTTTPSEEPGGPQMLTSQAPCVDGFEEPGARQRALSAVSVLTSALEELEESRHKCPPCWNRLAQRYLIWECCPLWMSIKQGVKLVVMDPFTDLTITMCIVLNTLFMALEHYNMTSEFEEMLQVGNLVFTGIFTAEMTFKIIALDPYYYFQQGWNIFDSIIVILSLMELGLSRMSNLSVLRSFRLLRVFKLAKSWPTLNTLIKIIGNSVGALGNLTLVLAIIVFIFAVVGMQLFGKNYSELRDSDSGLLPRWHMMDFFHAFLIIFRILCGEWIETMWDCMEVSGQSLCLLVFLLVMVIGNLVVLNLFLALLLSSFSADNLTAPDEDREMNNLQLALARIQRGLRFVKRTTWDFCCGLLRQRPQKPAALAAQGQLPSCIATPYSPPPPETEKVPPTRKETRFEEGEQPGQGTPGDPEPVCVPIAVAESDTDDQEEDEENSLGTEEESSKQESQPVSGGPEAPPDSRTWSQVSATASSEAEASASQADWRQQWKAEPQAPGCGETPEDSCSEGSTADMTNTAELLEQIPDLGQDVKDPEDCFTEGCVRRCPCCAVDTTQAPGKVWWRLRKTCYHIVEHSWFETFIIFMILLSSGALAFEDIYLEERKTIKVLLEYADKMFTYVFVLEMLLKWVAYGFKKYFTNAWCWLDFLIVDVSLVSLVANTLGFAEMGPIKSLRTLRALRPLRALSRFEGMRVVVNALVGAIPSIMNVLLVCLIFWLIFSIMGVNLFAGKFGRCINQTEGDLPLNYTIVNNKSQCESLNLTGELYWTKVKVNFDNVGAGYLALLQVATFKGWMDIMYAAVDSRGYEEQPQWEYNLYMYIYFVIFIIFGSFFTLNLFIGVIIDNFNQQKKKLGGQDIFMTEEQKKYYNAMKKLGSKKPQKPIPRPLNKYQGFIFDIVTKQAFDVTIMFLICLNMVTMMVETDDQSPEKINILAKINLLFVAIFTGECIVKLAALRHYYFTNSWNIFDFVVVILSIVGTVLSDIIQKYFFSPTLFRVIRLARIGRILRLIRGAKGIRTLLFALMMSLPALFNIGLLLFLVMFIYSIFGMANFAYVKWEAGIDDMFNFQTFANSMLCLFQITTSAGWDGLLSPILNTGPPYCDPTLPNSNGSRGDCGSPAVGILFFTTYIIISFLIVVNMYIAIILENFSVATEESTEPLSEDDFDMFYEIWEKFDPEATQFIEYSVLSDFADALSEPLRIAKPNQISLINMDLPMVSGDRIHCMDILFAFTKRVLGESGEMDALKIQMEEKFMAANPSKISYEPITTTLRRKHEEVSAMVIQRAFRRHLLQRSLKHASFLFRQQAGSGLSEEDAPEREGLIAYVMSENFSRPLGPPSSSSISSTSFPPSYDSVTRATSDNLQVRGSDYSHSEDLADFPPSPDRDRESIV

[4] = molecular target: Nav1.1 (Homo sapiens (Human), UniProt P35498); assay: Sodium Influx Assay (Flux), Nav1.1; type: cell-based; details: Trex HEK293 cells, ANG2 dye, inactivated state
[5] = molecular target: T2, Nav1.5
[6] = read-out: Flux NaV1.5 IC50, sodium influx assay, Trex HEK293 cells, ANG2 dye, inactivated state

| IC50 [1] [µM] | IC50 [2] [µM] | IC50 [4] [µM] | Compound | IC50 [3] [µM] | IC50 [3, 6] [µM] | IC50 [5] [µM] |
| --- | --- | --- | --- | --- | --- | --- |
| 0.039 | 0.082 | ≥ 30 | Cc1nc(S(=O)(=O)Nc2cscn2)ccc1NCc1c(F)cccc1CN(C)C(C)C [Example 29, 5-((2-fluoro-6-((isopropyl(methyl)amino)methyl)benzyl)amino)-6-methyl-N-(thiazol-4-yl)pyridine-2-sulfonamide trifluoroacetic acid salt] | ≥ 30 | – | – |
| 0.023 | 0.067 | 30 | Cc1nc(S(=O)(=O)Nc2ccsn2)ccc1NCc1c(F)cccc1CN1CCC1 [Example 20, 5-((2-(azetidin-1-ylmethyl)-6-fluorobenzyl)amino)-N-(isothiazol-3-yl)-6-methylpyridine-2-sulfonamide trifluoroacetic acid salt] | – | 25 | – |
| 0.017 | 0.084 | 30 | Cc1nc(S(=O)(=O)Nc2cscn2)c(F)cc1NCc1c(F)cccc1CN(C)C(C)(C)C [Example 48, 5-((2-((tert-butyl(methyl)amino)-methyl)-6-fluorobenzyl)amino)-3-fluoro-6-methyl-N-(thiazol-4-yl)pyridine-2-sulfonamide] | – | 30 | – |
| 0.026 | 0.111 | 28.8 | Cc1nc(S(=O)(=O)Nc2cscn2)ccc1NCc1c(F)cccc1CN1CCC1 [Example 4, 5-((2-(azetidin-1-ylmethyl)-6-fluorobenzyl)amino)-6-methyl-N-(thiazol-4-yl)pyridine-2-sulfonamide] | – | 28.2 | – |
| – | – | – | Cc1nc(S(=O)(=O)Nc2cscn2)c(F)cc1NCc1c(F)cccc1CN1C2CCC1CC2 [Example 33, 5-((2-((azabicyclo[2.2.1]heptan-7-yl)methyl)-6-fluorobenzyl)amino)-3-fluoro-6-methyl-N-(thiazol-4-yl)pyridine-2-sulfonamide trifluoroacetic acid salt] | – | – | 30 |
| 0.043 | 0.102 | 30 | Cc1nc(S(=O)(=O)Nc2cscn2)ccc1NCc1c(F)ccc(F)c1CN(C)C(C)(C)C [Example 21, 5-((2-((tert-butyl(methyl)amino)methyl)-3,6-difluorobenzyl)amino)-6-methyl-N-(thiazol-4-yl)pyridine-2-sulfonamide trifluoroacetic acid salt] | – | 30 | – |
| – | 2.23 | 5.54 | Cc1nc(NCc2c(F)cccc2CN2CCCC2)ccc1S(=O)(=O)Nc1cccc(F)n1 [Example 40, 6-((2-fluoro-6-(pyrrolidin-1-ylmethyl)benzyl)amino)-N-(6-fluoropyridin-2-yl)-2-methylpyridine-3-sulfonamide trifluoroacetic acid salt] | – | 3.27 | – |
| – | 0.056 | 11.1 | Cc1nc(S(=O)(=O)Nc2cccc(F)n2)ccc1NCc1c(F)cccc1CN1CCCC1 [Example 41, 5-((2-fluoro-6-(pyrrolidin-1-ylmethyl)benzyl)amino)-N-(6-fluoropyridin-2-yl)-6-methylpyridine-2-sulfonamide trifluoroacetic acid salt] | – | 30 | – |
| – | 0.296 | 30 | Cc1nc(S(=O)(=O)Nc2cscn2)ccc1NCc1cccc(F)c1CN1CCC1 [Example 27, 5-((2-(azetidin-1-ylmethyl)-3-fluorobenzyl)amino)-6-methyl-N-(thiazol-4-yl)pyridine-2-sulfonamide trifluoroacetic acid salt] | – | 30 | – |
| – | 2.11 | 8.21 | Cc1cc(S(=O)(=O)Nc2cccc(F)n2)sc1NCc1c(F)cccc1CN1CCCC1 [Example 43, 5-((2-fluoro-6-(pyrrolidin-1-ylmethyl)benzyl)amino)-N-(6-fluoropyridin-2-yl)-4-methylthiophene-2-sulfonamide trifluoroacetic acid salt] | – | 10.3 | – |
| 0.069 | 0.398 | 30 | Cc1nc(S(=O)(=O)Nc2cscn2)ccc1NCc1c(F)cccc1CN(C)C(C)(C)C [Example 6, 5-((2-((tert-butyl(methyl)amino)methyl)-6-fluorobenzyl)amino)-6-methyl-N-(thiazol-4-yl)pyridine-2-sulfonamide formic acid salt] | – | 30 | – |
| 0.038 | 0.221 | 30 | Cc1nc(S(=O)(=O)Nc2ccsn2)ccc1NCc1c(F)cccc1CN(C)C(C)(C)C [Example 19, 5-((2-((tert-butyl(methyl)amino)methyl)-6-fluorobenzyl)amino)-N-(isothiazol-3-yl)-6-methylpyridine-2-sulfonamide trifluoroacetic acid salt] | – | 30 | – |
| – | 0.242 | 30 | Cc1nc(S(=O)(=O)Nc2cscn2)ccc1NCc1ccccc1CN1CCC1 [Example 26, 5-((2-(azetidin-1-ylmethyl)benzyl)amino)-6-methyl-N-(thiazol-4-yl)pyridine-2-sulfonamide trifluoroacetic acid salt] | – | 30 | – |
| – | 9.54 | 7.68 | Cc1sc(S(=O)(=O)Nc2cccc(F)n2)cc1NCc1c(F)cccc1Br [Example 23, 4-((2-bromo-6-fluorobenzyl)amino)-N-(6-fluoropyridin-2-yl)-5-methylthiophene-2-sulfonamide] | – | 30 | – |
| – | 13.2 | 25.8 | C[C@H](Nc1ncc(S(=O)(=O)Nc2cscn2)cc1Cl)c1ccccc1F [Example 2, (S)-5-chloro-6-((1-(2-fluorophenyl)ethyl)amino)-N-(thiazol-4-yl)pyridine-3-sulfonamide] | – | 20.4 | – |
| – | 0.221 | 30 | Cc1nc(S(=O)(=O)Nc2cccc(F)n2)ccc1NCc1c(F)cccc1CN(C)C(C)(C)C [Example 22, 5-((2-((tert-butyl(methyl)amino)methyl)-6-fluorobenzyl)amino)-N-(6-fluoropyridin-2-yl)-6-methylpyridine-2-sulfonamide trifluoroacetic acid salt] | – | 30 | – |
| – | 0.863 | 0.245 | Cc1nc(S(=O)(=O)Nc2cscn2)c(F)cc1NCc1c(F)ccc(F)c1Br [Example 36, 5-((2-bromo-3,6-difluorobenzyl)amino)-3-fluoro-6-methyl-N-(thiazol-4-yl)pyridine-2-sulfonamide trifluoroacetic acid salt] | – | 30 | – |
| – | 1.46 | 30 | O=S(=O)(Nc1cscn1)c1cc(C(F)F)c(NCc2c(F)cccc2CN2CCCC2)cn1 [Example 17, 4-(difluoromethyl)-5-((2-fluoro-6-(pyrrolidin-1-ylmethyl)benzyl)amino)-N-(thiazol-4-yl)pyridine-2-sulfonamide formic acid salt] | – | 30 | – |

| Compound | IC50 [1] [µM] | IC50 [2] [µM] | IC50 [4] [µM] | IC50 [3] [µM] | IC50 [3, 6] [µM] | IC50 [5] [µM] |
| --- | --- | --- | --- | --- | --- | --- |
| Cc1nc(S(=O)(=O)Nc2cscn2)ccc1NCc1c(F)cccc1CN1C2CCC1CC2 [Example 25, 5-((2-((7-azabicyclo[2.2.1]heptan-7-yl)methyl)-6-fluorobenzyl)amino)-6-methyl-N-(thiazol-4-yl)pyridine-2-sulfonamide trifluoroacetic acid salt] | – | 0.154 | 30 | – | – | 30 |
| O=S(=O)(Nc1cscn1)c1ccc(NCc2c(F)cccc2CN2C3CCC2CC3)c(C(F)(F)F)n1 [Example 47, 5-((2-((7-azabicyclo[2.2.1]heptan-7-yl)methyl)-6-fluorobenzyl)amino)-N-(thiazol-4-yl)-6-(trifluoromethyl)pyridine-2-sulfonamide trifluoroacetic acid salt] | – | 0.021 | 13.6 | – | – | 30 |
